The source of these data is patent US20240050428A1 (Cullgen (Shanghai), Inc., priority 2020, published 2024).

The test system of one experiment is MOLM-13 cells. In words: Cell viability assay (CellTiter-Glo) in MOLM-13 cells, alone or with gilteritinib. The format is cell-based. Conditions: Homo sapiens, MOLM-13 cells, three days, CellTiter-Glo.
The next experiment has as its system MV4;11 cells. In words: Cell viability assay (CellTiter-Glo) in MV4;11 cells, alone or with gilteritinib. In kind it is cell-based. The note with it: Homo sapiens, MV4;11 cells, three days, CellTiter-Glo, read-out: MV4.
The mark [1] stands for this setting: MOLM-13, 72 h, compound alone (without gilteritinib), read-out: MOLM-13 IC50.
[2] abbreviates: MOLM-13, 72 h, with gilteritinib 20 nM, read-out: MOLM-13 IC50 gilteritinib.
Setting [3] is: MV4-11, 72 h, compound alone (without gilteritinib), 11 IC50.
Setting [4] is: MV4-11, 72 h, with gilteritinib 10 nM, 11 IC50 gilteritinib.
[5] abbreviates: MOLM-13, 72 h, compound with gilteritinib 20 nM, read-out: MOLM-13 IC50 gilteritinib.
The mark [6] stands for this setting: MV4-11, 72 h, compound with gilteritinib 10 nM, 11 IC50 gilteritinib.

pIC50: −log10 of the molar value. Read-outs that look alike come from different tables or passages of the source.

Turning to `O=C1CCC(N2C(=O)c3ccc(NC(=O)COCCC(=O)N4CCC(n5cc(-c6cnc7ccccc7n6)cn5)CC4)cc3C2=O)C(=O)N1` (stereo not drawn) [GS-330, N-(2-(2,6-Dioxopiperidin-3-yl)-1,3-dioxoisoindolin-5-yl)-2-(3-oxo-3-(4-(4-(quinoxalin-2-yl)-1H-pyrazol-1-yl)piperidin-1-yl)propoxy)acetamide], the pIC50 with MOLM-13 cells (setting [1]), in the experiment with MOLM-13 cells (setting [2]), with MV4;11 cells (setting [3]) and in the experiment with MV4;11 cells (setting [4]) was less than 6.00 each time.
`Cc1nc(-c2cnc3ccccc3n2)cn1CCCCCCNc1ccc2c(c1)C(=O)N(C1CCC(=O)NC1=O)C2=O` (stereo not drawn) [GS-380, 2-(2,6-Dioxopiperidin-3-yl)-5-((6-(2-methyl-4-(quinoxalin-2-yl)-1H-imidazol-1-yl)hexyl)amino)isoindoline-1,3-dione]: the pIC50 is 6.00 to 7.00 with MOLM-13 cells (setting [1]), 6.00 to 7.00 in the experiment with MOLM-13 cells (setting [2]), less than 6.00 in the experiment with MV4;11 cells (setting [3]) and less than 6.00 in the experiment with MV4;11 cells (setting [4]).
Regarding `O=C1CCC(N2C(=O)c3ccc(NC[C@H]4C[C@H](n5cc(-c6ccc(N7CCNCC7)cn6)c(C6CC6)n5)C4)cc3C2=O)C(=O)N1` (stereo partly drawn) [GS-297, 5-(((trans-3-(3-Cyclopropyl-4-(5-(piperazin-1-yl)pyridin-2-yl)-1H-pyrazol-1-yl)cyclobutyl)methyl)amino)-2-(2,6-dioxopiperidin-3-yl)isoindoline-1,3-dione], the pIC50 with MOLM-13 cells (setting [1]), in the experiment on MOLM-13 cells (setting [2]), in the experiment on MV4;11 cells (setting [3]) and in the experiment on MV4;11 cells (setting [4]) was less than 6.00 throughout.
`O=C(CC1CCC(N2CCC(n3cc(-c4cnc5ccccc5n4)cn3)CC2)CC1)NCc1ccc2c(c1)CN(C1CCC(=O)NC1=O)C2=O` (stereo not drawn) [GS-089, N-((2-(2,6-dioxopiperidin-3-yl)-1-oxoisoindolin-5-yl)methyl)-2-(4-(4-(4-(quinoxalin-2-yl)-1H-pyrazol-1-yl)piperidin-1-yl)cyclohexyl)acetamide]: the pIC50 with MOLM-13 cells (setting [1]), with MOLM-13 cells (setting [2]), in the experiment on MV4;11 cells (setting [3]) and in the experiment with MV4;11 cells (setting [4]) was less than 6.00 in each case.
Turning to `CN1CCC(Nc2cccnc2-c2cn([C@H]3C[C@H](CNc4ccc5c(c4)C(=O)N(C4CCC(=O)NC4=O)C5=O)C3)nc2C2CC2)CC1` (stereo partly drawn) [GS-617, 5-(((trans-3-(3-Cyclopropyl-4-(3-((1-methylpiperidin-4-yl)amino)pyridin-2-yl)-1H-pyrazol-1-yl)cyclobutyl)methyl)amino)-2-(2,6-dioxopiperidin-3-yl)isoindoline-1,3-dione], the pIC50 with MOLM-13 cells (setting [1]), with MOLM-13 cells (setting [5]), in the experiment on MV4;11 cells (setting [3]) and with MV4;11 cells (setting [6]) was less than 6.00 throughout.
Regarding `O=C1CCC(N2C(=O)c3ccc(NC[C@H]4C[C@H](n5nc(C6CC6)c6ccccc65)C4)cc3C2=O)C(=O)N1` (stereo partly drawn) [GS-442, 5-(((trans-3-(3-cyclopropyl-1H-indazol-1-yl)cyclobutyl)methyl)amino)-2-(2,6-dioxopiperidin-3-yl)isoindoline-1,3-dione], the pIC50 in the experiment with MOLM-13 cells (setting [1]) is 7.00 to 8.00; with MOLM-13 cells (setting [5]) it was greater than 8.00; in the experiment with MV4;11 cells (setting [3]), greater than 8.00; in the experiment with MV4;11 cells (setting [6]), greater than 8.00.
On to `Cn1ccc2cnc(-c3cn([C@H]4C[C@H](CNc5ccc6c(c5)C(=O)N(C5CCC(=O)NC5=O)C6=O)C4)nc3C3CC3)cc21` (stereo partly drawn) [GS-618, 5-(((trans-3-(3-Cyclopropyl-4-(1-methyl-1H-pyrrolo[3,2-c]pyridin-6-yl)-1H-pyrazol-1-yl)cyclobutyl)methyl)amino)-2-(2,6-dioxopiperidin-3-yl)isoindoline-1,3-dione], for which the pIC50 in the experiment with MOLM-13 cells (setting [1]) is 7.00 to 8.00; with MOLM-13 cells (setting [5]), greater than 8.00; in the experiment on MV4;11 cells (setting [3]) it was greater than 8.00; in the experiment on MV4;11 cells (setting [6]), greater than 8.00.
As for `O=C1CCC(N2C(=O)c3ccc(NCCCCCCN4CCC(O)CC4)cc3C2=O)C(=O)N1` (stereo not drawn) [GS-331, 2-(2,6-Dioxopiperidin-3-yl)-5-((6-(4-hydroxypiperidin-1-yl)hexyl)amino)isoindoline-1,3-dione], the pIC50 in the experiment on MOLM-13 cells (setting [1]) is less than 6.00; with MOLM-13 cells (setting [2]), 6.00 to 7.00; in the experiment with MV4;11 cells (setting [3]) it was less than 6.00; with MV4;11 cells (setting [4]) it was less than 6.00.
As to `CN1CCC(c2cccc3ncc(-c4cnn(CCCCCCNc5ccc6c(c5)C(=O)N(C5CCC(=O)NC5=O)C6=O)c4)nc23)CC1` (stereo not drawn) [GS-388, 2-(2,6-Dioxopiperidin-3-yl)-5-((6-(4-(8-(1-methylpiperidin-4-yl)quinoxalin-2-yl)-1H-pyrazol-1-yl)hexyl)amino)isoindoline-1,3-dione], the pIC50 with MOLM-13 cells (setting [1]), in the experiment with MOLM-13 cells (setting [2]), in the experiment with MV4;11 cells (setting [3]) and with MV4;11 cells (setting [4]) was less than 6.00 in each case.
For `O=C1CCC(N2Cc3c(Nc4ccnc(Nc5cccc(N6CCN(c7ncccn7)CC6)c5)n4)cccc3C2=O)C(=O)N1` (stereo not drawn) [GS-078, 3-(1-Oxo-4-((2-((3-(4-(pyrimidin-2-yl)piperazin-1-yl)phenyl)amino)pyrimidin-4-yl)amino)isoindolin-2-yl)piperidine-2,6-dione], the pIC50 is 7.00 to 8.00 with MOLM-13 cells (setting [1]), greater than 8.00 in the experiment with MOLM-13 cells (setting [2]), 7.00 to 8.00 with MV4;11 cells (setting [3]) and greater than 8.00 in the experiment with MV4;11 cells (setting [4]).
`O=C1CCC(N2C(=O)c3ccc(NCCCCCCn4cc(-c5cnc6ccc(C7CCOCC7)cc6n5)c(C5CC5)n4)cc3C2=O)C(=O)N1` (stereo not drawn) [GS-571, 5-((6-(3-Cyclopropyl-4-(7-(tetrahydro-2H-pyran-4-yl)quinoxalin-2-yl)-1H-pyrazol-1-yl)hexyl)amino)-2-(2,6-dioxopiperidin-3-yl)isoindoline-1,3-dione]: the pIC50 was 7.00 to 8.00 with MOLM-13 cells (setting [1]), greater than 8.00 in the experiment with MOLM-13 cells (setting [5]), greater than 8.00 in the experiment with MV4;11 cells (setting [3]) and greater than 8.00 in the experiment on MV4;11 cells (setting [6]).
As to `O=C1CCC(N2C(=O)c3ccc(NCCCCCCn4nccc4-c4cnc5ccccc5n4)cc3C2=O)C(=O)N1` (stereo not drawn) [GS-537, 2-(2,6-dioxopiperidin-3-yl)-5-((6-(5-(quinoxalin-2-yl)-1H-pyrazol-1-yl)hexyl)amino)isoindoline-1,3-dione], the pIC50 is less than 6.00 in the experiment with MOLM-13 cells (setting [1]), 7.00 to 8.00 with MOLM-13 cells (setting [5]), 6.00 to 7.00 with MV4;11 cells (setting [3]) and 6.00 to 7.00 with MV4;11 cells (setting [6]).
As to `CN1C[C@H]2C[C@@H]1CN2c1ccc2ncc(-c3cnn(C4CC(CCCNc5ccc6c(c5)C(=O)N(C5CCC(=O)NC5=O)C6=O)C4)c3)nc2c1` (stereo partly drawn) [GS-395, 2-(2,6-Dioxopiperidin-3-yl)-5-((3-(3-(4-(7-((1R,4R)-5-methyl-2,5-diazabicyclo[2.2.1]heptan-2-yl)quinoxalin-2-yl)-1H-pyrazol-1-yl)cyclobutyl)propyl)amino)isoindoline-1,3-dione], the pIC50 in the experiment with MOLM-13 cells (setting [1]) was less than 6.00; in the experiment on MOLM-13 cells (setting [2]), 7.00 to 8.00; with MV4;11 cells (setting [3]), less than 6.00; with MV4;11 cells (setting [4]), 7.00 to 8.00.
For `O=C1CCC(N2C(=O)c3ccc(NC[C@H]4C[C@H](n5cc(-c6ccccn6)cn5)C4)cc3C2=O)C(=O)N1` (stereo partly drawn) [GS-577, 2-(2,6-Dioxopiperidin-3-yl)-5-(((trans-3-(4-(pyridin-2-yl)-1H-pyrazol-1-yl)cyclobutyl)methyl)amino)isoindoline-1,3-dione], the pIC50 in the experiment on MOLM-13 cells (setting [1]) is 6.00 to 7.00; in the experiment with MOLM-13 cells (setting [5]), 6.00 to 7.00; in the experiment with MV4;11 cells (setting [3]) it was less than 6.00; with MV4;11 cells (setting [6]), less than 6.00.
As to `O=C1CCC(N2C(=O)c3ccc(NCCCCCCn4cc(-c5cnc6ccccc6n5)cn4)cc3C2=O)C(=O)N1` (stereo not drawn) [GS-339, 2-(2,6-Dioxopiperidin-3-yl)-5-((6-(4-(quinoxalin-2-yl)-1H-pyrazol-1-yl)hexyl)amino)isoindoline-1,3-dione], the pIC50 with MOLM-13 cells (setting [1]) was less than 6.00; with MOLM-13 cells (setting [2]) it was 7.00 to 8.00; with MV4;11 cells (setting [3]), 6.00 to 7.00; with MV4;11 cells (setting [4]) it was greater than 8.00.
For `CN1CCN(c2ccnc(-c3cn([C@H]4C[C@H](CNc5ccc6c(c5)C(=O)N(C5CCC(=O)NC5=O)C6=O)C4)nc3C3CC3)c2)CC1` (stereo partly drawn) [GS-608, 5-(((trans-3-(3-Cyclopropyl-4-(4-(4-methylpiperazin-1-yl)pyridin-2-yl)-1H-pyrazol-1-yl)cyclobutyl)methyl)amino)-2-(2,6-dioxopiperidin-3-yl)isoindoline-1,3-dione], the pIC50 in the experiment on MOLM-13 cells (setting [1]), in the experiment with MOLM-13 cells (setting [5]), with MV4;11 cells (setting [3]) and with MV4;11 cells (setting [6]) was less than 6.00 throughout.
`O=C1CCC(N2C(=O)c3ccc(NC[C@H]4C[C@H](n5cc(-c6cnc7ccccc7n6)cn5)C4)cc3C2=O)C(=O)N1` (stereo partly drawn) [GS-178, 2-(2,6-Dioxopiperidin-3-yl)-5-(((trans-3-(4-(quinoxalin-2-yl)-1H-pyrazol-1-yl)cyclobutyl)methyl)amino)isoindoline-1,3-dione]: the pIC50 with MOLM-13 cells (setting [1]) was 6.00 to 7.00; in the experiment with MOLM-13 cells (setting [2]), 7.00 to 8.00; in the experiment with MV4;11 cells (setting [3]), 7.00 to 8.00; in the experiment on MV4;11 cells (setting [4]) it was 7.00 to 8.00.
Turning to `O=C1CCC(N2C(=O)c3ccc(NCCC4CC(Cn5cc(-c6cnc7ccccc7n6)cn5)C4)cc3C2=O)C(=O)N1` (stereo not drawn) [GS-558, 2-(2,6-Dioxopiperidin-3-yl)-5-((2-(3-((4-(quinoxalin-2-yl)-1H-pyrazol-1-yl)methyl)cyclobutyl)ethyl)amino)isoindoline-1,3-dione], the pIC50 was less than 6.00 in the experiment with MOLM-13 cells (72 h, compound alone (without gilteritinib), read-out: MOLM-13 IC50); 7.00 to 8.00 in the experiment with MOLM-13 cells (72 h, compound with gilteritinib 20 nM, read-out: MOLM-13 IC50 gilteritinib); 6.00 to 7.00 in the experiment with MV4;11 cells (72 h, compound alone (without gilteritinib), 11 IC50); 6.00 to 7.00 in the experiment with MV4;11 cells (72 h, compound with gilteritinib 10 nM, 11 IC50 gilteritinib).
